One test concerns the target CREBBP (Homo sapiens (Human), UniProt Q92793). Description: In vitro enzyme inhibition assay - CREBBP inhibition (AlphaScreen, biotinylated H4-tetraacetyl peptide). Format: binding. A digest of the protocol:
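His-tagged CREBBP expressed in E. coli (50 nM final) incubated with biotinylated H4K5/8/12/16(Ac) peptide (20 nM final) in HEPES pH 7.3 buffer, 0.4% DMSO, 20 min at room temperature.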
In general terms: In Alpha technology, singlet oxygen from a donor bead excites a nearby acceptor bead.

Another test deals with BRD4 (Homo sapiens (Human), UniProt O60885). Put plainly: In vitro enzyme inhibition assay - BRD4 inhibition (as described in U.S. Pat. No. 9,034,900). Format: binding. As to conditions: Table 29; BRD4 BD1.

Each structure is given as a SMILES string.

Sequence of CREBBP (Q92793 1081-1197): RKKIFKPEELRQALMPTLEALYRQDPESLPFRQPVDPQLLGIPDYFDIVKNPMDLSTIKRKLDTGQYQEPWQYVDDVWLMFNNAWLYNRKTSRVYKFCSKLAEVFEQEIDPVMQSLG

For the compound `CCCCS(=O)(=O)Nc1cc(-c2ccc(=O)n(C)c2)nc(Oc2c(C)cccc2F)n1` [Example 113, Butane-1-sulfonic acid [2-(2-fluoro-6-methyl-phenoxy)-6-(1-methyl-6-oxo-1,6-dihydro-pyridin-3-yl)-pyrimidin-4-yl]-amide], the half-inhibitory concentration (IC50) (as a rule, the concentration at which inhibition is half-maximal) at CREBBP (Table 28, AlphaScreen, H4-tetraacetyl peptide) was under 500 nM; at CREBBP (Table 29), under 500 nM; against BRD4 it was over 5000 nM.

Consider `CCS(=O)(=O)Nc1ncc(Oc2ccc(F)cc2F)c(-c2cc(C)c(=O)n(C)c2)n1` [N-(5-(2,4-difluorophenoxy)-4-(1,5-dimethyl-6-oxo-1,6-dihydropyridin-3-yl)-pyrimidin-2-yl)ethanesulfonamide], for which the concentration for half-maximal inhibition (IC50) against CREBBP (Table 29) is over 5000 nM; on BRD4, under 500 nM.

For the compound `Cc1cc(-c2nc(NS(C)(=O)=O)ncc2Oc2ccc(F)cc2F)cn(C)c1=O` [N-(5-(2,4-difluorophenoxy)-4-(1,5-dimethyl-6-oxo-1,6-dihydropyridin-3-yl)-pyrimidin-2-yl)methanesulfonamide], the concentration for half-maximal inhibition (IC50) against CREBBP (Table 29) was over 5000 nM; at BRD4 it was under 500 nM.
